ChEMBL document CHEMBL1201862, “PubChem BioAssay data set” (2004)
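A five-concentration, 48-hour dose response in 96-well plates underlies each endpoint, interpolated linearly between surrounding concentrations. At the GI50, growth is halved.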 Activity calls are given as the source filed them. Cut-off read from the data, not from the text of the source: active = GI50 up to about 1.1 µM and inactive = higher.

How the values were obtained:
Test in all cases: growth of human tumour cells (NCI), 48 h
NCI/ADR-RES = system: NCI/ADR-RES
UO-31 = system: UO-31
SW-620 = system: SW-620
HOP-62 = system: HOP-62
HCC 2998 = system: HCC 2998
HCT-116 = system: HCT-116
HCT-15 = system: HCT-15
Hs-578T = system: Hs-578T
MDA-MB-231 = system: MDA-MB-231
TK-10 = system: TK-10
IGROV-1 = system: IGROV-1
SNB-19 = system: SNB-19
SN12C = system: SN12C
OVCAR-4 = system: OVCAR-4
A549 = system: A549
EKVX = system: EKVX
OVCAR-8 = system: OVCAR-8
SK-MEL-28 = system: SK-MEL-28
SF-295 = system: SF-295
T47D = system: T47D
SK-OV-3 = system: SK-OV-3
NCI-H226 = system: NCI-H226
HT-29 = system: HT-29
MDA-N = system: MDA-N
CAKI-1 = system: CAKI-1
UACC-257 = system: UACC-257
HOP-92 = system: HOP-92
Malme-3M = system: Malme-3M
OVCAR-5 = system: OVCAR-5
MDA-MB-435 = system: MDA-MB-435
SF-539 = system: SF-539
SK-MEL-2 = system: SK-MEL-2
SNB-75 = system: SNB-75
PC-3 = system: PC-3
NCI-H23 = system: NCI-H23
MCF7 = system: MCF7
U-251 = system: U-251
KM12 = system: KM12
NCI-H522 = system: NCI-H522
A498 = system: A498
ACHN = system: ACHN
SF-268 = system: SF-268
UACC-62 = system: UACC-62
OVCAR-3 = system: OVCAR-3
RPMI-8226 = system: RPMI-8226
LOX IMVI = system: LOX IMVI
M14 = system: M14
786-0 = system: 786-0
RXF 393 = system: RXF 393
SK-MEL-5 = system: SK-MEL-5
BT-549 = system: BT-549
CCRF-CEM = system: CCRF-CEM
HL-60 = system: HL-60
NCI-H460 = system: NCI-H460
K562 = system: K562
COLO 205 = system: COLO 205
SR = system: SR
DU-145 = system: DU-145
MOLT-4 = system: MOLT-4

COC(=O)/C(=N\NC(=S)NN)C(C(=O)OC)C(=O)C(=O)Nc1cccc(C(F)(F)F)c1 (configuration not stated)
GI50 (NCI/ADR-RES): > 100 µM (inactive)
GI50 (UO-31): > 100 µM (inactive)
GI50 (SW-620): > 100 µM (inactive)
GI50 (HOP-62): > 100 µM (inactive)
GI50 (HCC 2998): > 100 µM (inactive)
GI50 (HCT-116): > 100 µM (inactive)
GI50 (HCT-15): > 100 µM
GI50 (Hs-578T): > 100 µM (inactive)
GI50 (MDA-MB-231): > 100 µM (inactive)
GI50 (TK-10): > 100 µM (inactive)
GI50 (IGROV-1): > 100 µM (inactive)
GI50 (SNB-19): > 100 µM (inactive)
GI50 (SN12C): > 100 µM (inactive)
GI50 (OVCAR-4): > 100 µM (inactive)
GI50 (A549): > 100 µM (inactive)
GI50 (EKVX): > 100 µM (inactive)
GI50 (OVCAR-8): > 100 µM (inactive)
GI50 (SK-MEL-28): 49.3 µM (inactive)
GI50 (SF-295): > 100 µM (inactive)
GI50 (T47D): > 100 µM (inactive)
GI50 (SK-OV-3): > 100 µM (inactive)
GI50 (NCI-H226): > 100 µM (inactive)
GI50 (HT-29): > 100 µM (inactive)
GI50 (MDA-N): > 100 µM (inactive)
GI50 (CAKI-1): > 100 µM (inactive)
GI50 (UACC-257): > 100 µM (inactive)
GI50 (HOP-92): > 100 µM (inactive)
GI50 (Malme-3M): > 100 µM (inactive)
GI50 (OVCAR-5): 79.1 µM (inactive)
GI50 (MDA-MB-435): > 100 µM (inactive)
GI50 (SF-539): > 100 µM (inactive)
GI50 (SK-MEL-2): > 100 µM (inactive)
GI50 (SNB-75): > 100 µM (inactive)
GI50 (PC-3): > 100 µM (inactive)
GI50 (NCI-H23): > 100 µM (inactive)
GI50 (MCF7): > 100 µM (inactive)
GI50 (U-251): > 100 µM (inactive)
GI50 (KM12): > 100 µM (inactive)
GI50 (NCI-H522): > 100 µM (inactive)
GI50 (A498): > 100 µM (inactive)
GI50 (ACHN): > 100 µM (inactive)
GI50 (SF-268): > 100 µM (inactive)
GI50 (UACC-62): > 100 µM (inactive)
GI50 (OVCAR-3): > 100 µM (inactive)
GI50 (RPMI-8226): > 100 µM (inactive)
GI50 (LOX IMVI): > 100 µM (inactive)
GI50 (M14): > 100 µM (inactive)
GI50 (786-0): > 100 µM (inactive)
GI50 (RXF 393): > 100 µM (inactive)
GI50 (SK-MEL-5): > 100 µM (inactive)
GI50 (BT-549): > 100 µM (inactive)
GI50 (CCRF-CEM): > 100 µM (inactive)
GI50 (HL-60): > 100 µM (inactive)
GI50 (NCI-H460): > 100 µM (inactive)

Cc1nc(C(N)=S)sc1C(=O)CC(=O)C(=O)Nc1ccc(Br)cc1
GI50 (NCI/ADR-RES): > 100 µM (inactive)
GI50 (UO-31): > 100 µM (inactive)
GI50 (SW-620): > 100 µM (inactive)
GI50 (HOP-62): > 100 µM (inactive)
GI50 (HCT-116): > 100 µM (inactive)
GI50 (HCT-15): > 100 µM
GI50 (Hs-578T): > 100 µM (inactive)
GI50 (MDA-MB-231): > 100 µM (inactive)
GI50 (TK-10): > 100 µM (inactive)
GI50 (IGROV-1): > 100 µM (inactive)
GI50 (SN12C): > 100 µM (inactive)
GI50 (OVCAR-4): > 100 µM (inactive)
GI50 (A549): > 100 µM (inactive)
GI50 (EKVX): > 100 µM (inactive)
GI50 (OVCAR-8): > 100 µM (inactive)
GI50 (SK-MEL-28): > 100 µM (inactive)
GI50 (SF-295): > 100 µM (inactive)
GI50 (T47D): > 100 µM (inactive)
GI50 (SK-OV-3): > 100 µM (inactive)
GI50 (NCI-H226): > 100 µM (inactive)
GI50 (HT-29): > 100 µM (inactive)
GI50 (MDA-N): > 100 µM (inactive)
GI50 (CAKI-1): > 100 µM (inactive)
GI50 (UACC-257): > 100 µM (inactive)
GI50 (HOP-92): > 100 µM (inactive)
GI50 (Malme-3M): > 100 µM (inactive)
GI50 (OVCAR-5): > 100 µM (inactive)
GI50 (MDA-MB-435): > 100 µM (inactive)
GI50 (SF-539): > 100 µM (inactive)
GI50 (SK-MEL-2): > 100 µM (inactive)
GI50 (SNB-75): > 100 µM (inactive)
GI50 (PC-3): > 100 µM (inactive)
GI50 (NCI-H23): > 100 µM (inactive)
GI50 (MCF7): > 100 µM (inactive)
GI50 (U-251): > 100 µM (inactive)
GI50 (KM12): > 100 µM (inactive)
GI50 (NCI-H522): 66.4 µM (inactive)
GI50 (A498): > 100 µM (inactive)
GI50 (ACHN): > 100 µM (inactive)
GI50 (K562): > 100 µM (inactive)
GI50 (SF-268): > 100 µM (inactive)
GI50 (UACC-62): > 100 µM (inactive)
GI50 (OVCAR-3): > 100 µM (inactive)
GI50 (RPMI-8226): > 100 µM (inactive)
GI50 (LOX IMVI): > 100 µM (inactive)
GI50 (M14): > 100 µM (inactive)
GI50 (786-0): > 100 µM (inactive)
GI50 (RXF 393): > 100 µM (inactive)
GI50 (SK-MEL-5): > 100 µM (inactive)
GI50 (BT-549): > 100 µM (inactive)
GI50 (CCRF-CEM): > 100 µM (inactive)
GI50 (HL-60): > 100 µM (inactive)
GI50 (NCI-H460): > 100 µM (inactive)

O=C(NC1CCCCC1)N1CCNC1=S
GI50 (NCI/ADR-RES): > 100 µM (inactive)
GI50 (UO-31): > 100 µM (inactive)
GI50 (SW-620): > 100 µM (inactive)
GI50 (HOP-62): > 100 µM (inactive)
GI50 (HCC 2998): > 100 µM (inactive)
GI50 (HCT-116): > 100 µM (inactive)
GI50 (HCT-15): > 100 µM
GI50 (Hs-578T): > 100 µM (inactive)
GI50 (MDA-MB-231): 3.2 µM (inactive)
GI50 (TK-10): > 100 µM (inactive)
GI50 (IGROV-1): > 100 µM (inactive)
GI50 (SN12C): > 100 µM (inactive)
GI50 (OVCAR-4): > 100 µM (inactive)
GI50 (A549): > 100 µM (inactive)
GI50 (EKVX): 9.53 µM (inactive)
GI50 (OVCAR-8): > 100 µM (inactive)
GI50 (SK-MEL-28): > 100 µM (inactive)
GI50 (SF-295): > 100 µM (inactive)
GI50 (T47D): > 100 µM (inactive)
GI50 (SK-OV-3): > 100 µM (inactive)
GI50 (NCI-H226): 45.3 µM (inactive)
GI50 (HT-29): > 100 µM (inactive)
GI50 (MDA-N): > 100 µM (inactive)
GI50 (CAKI-1): > 100 µM (inactive)
GI50 (UACC-257): > 100 µM (inactive)
GI50 (HOP-92): > 100 µM (inactive)
GI50 (Malme-3M): > 100 µM (inactive)
GI50 (OVCAR-5): > 100 µM (inactive)
GI50 (MDA-MB-435): > 100 µM (inactive)
GI50 (SF-539): 65.6 µM (inactive)
GI50 (COLO 205): > 100 µM (inactive)
GI50 (SK-MEL-2): 2.94 µM (inactive)
GI50 (SNB-75): > 100 µM (inactive)
GI50 (SR): > 100 µM (inactive)
GI50 (NCI-H23): > 100 µM (inactive)
GI50 (U-251): 1.91 µM (inactive)
GI50 (KM12): > 100 µM (inactive)
GI50 (NCI-H522): > 100 µM (inactive)
GI50 (A498): > 100 µM (inactive)
GI50 (ACHN): > 100 µM (inactive)
GI50 (K562): > 100 µM (inactive)
GI50 (SF-268): > 100 µM (inactive)
GI50 (DU-145): > 100 µM (inactive)
GI50 (OVCAR-3): > 100 µM (inactive)
GI50 (RPMI-8226): 65.6 µM (inactive)
GI50 (LOX IMVI): > 100 µM (inactive)
GI50 (M14): > 100 µM (inactive)
GI50 (786-0): > 100 µM (inactive)
GI50 (RXF 393): 7.71 µM (inactive)
GI50 (SK-MEL-5): > 100 µM (inactive)
GI50 (BT-549): 66.4 µM (inactive)
GI50 (CCRF-CEM): > 100 µM (inactive)
GI50 (HL-60): > 100 µM (inactive)
GI50 (MOLT-4): > 100 µM (inactive)
GI50 (NCI-H460): > 100 µM (inactive)
